Measured values reported in ChEMBL document CHEMBL1136309, “Synthesis and SAR studies of potent HIV protease inhibitors containing novel dimethylphenoxyl acetates as P2 ligands” (Bioorg Med Chem Lett, 2003).

Legend:
[1] = tested on: Human immunodeficiency virus 1; experiment: Antiviral activity was tested in presence of 50% human serum in MT-4 cells (in vitro); assay type: functional, organism-based; details: Human immunodeficiency virus 1, MT4
[2] = tested on: Human immunodeficiency virus 1; experiment: Antiviral activity was tested in absence of human serum in MT-4 cells (in vitro); assay type: functional, organism-based; details: Human immunodeficiency virus 1, MT4
[3] = target: Human immunodeficiency virus type 1 protease (Human immunodeficiency virus 1) (UniProt Q72874); experiment: Inhibitory activity against HIV protease at a compound concentration of 0.5 nM in MT-4 cells; assay type: cell-based; details: MT4
[4] = target: Human immunodeficiency virus type 1 protease (Human immunodeficiency virus 1) (UniProt Q72874); experiment: Inhibitory activity against HIV protease at a compound concentration of 12 nM in MT-4 cells; assay type: cell-based; details: MT4
[5] = target: Human immunodeficiency virus type 1 protease (Human immunodeficiency virus 1) (UniProt Q72874); experiment: Inhibitory activity against HIV protease at a compound concentration of 31 nM in MT-4 cells; assay type: cell-based; details: MT4
[6] = target: Human immunodeficiency virus type 1 protease (Human immunodeficiency virus 1) (UniProt Q72874); experiment: Inhibitory activity against HIV protease at a compound concentration of 2.4 nM in MT-4 cells; assay type: cell-based; details: MT4
[7] = target: Human immunodeficiency virus type 1 protease (Human immunodeficiency virus 1) (UniProt Q72874); experiment: Inhibitory activity against HIV protease at a compound concentration of 1 nM in MT-4 cells; assay type: cell-based; details: MT4

Row | Structure (SMILES) | EC50 [1] [nM] | EC50 [2] [nM] | inhibition [3] [%] | inhibition [4] [%] | inhibition [5] [%] | inhibition [6] [%] | inhibition [7] [%]
1 | Cc1ccc(N)c(C)c1OCC(=O)N[C@@H](Cc1ccccc1)C[C@H](O)[C@H](Cc1ccccc1)NC(=O)O[C@H]1COC2OCCC21 (stereo not given in full) | 35 | 5 | 87 | – | – | – | –
2 | Cc1cc(C(N)=O)cc(C)c1OCC(=O)N[C@@H](Cc1ccccc1)C[C@H](O)[C@H](Cc1ccccc1)NC(=O)O[C@H]1COC2OCCC21 (stereo not given in full) | 987 | 255 | – | – | – | – | –
3 | Cc1cc2oc(O)nc2c(C)c1OCC(=O)N[C@@H](Cc1ccccc1)C[C@H](O)[C@H](Cc1ccccc1)NC(=O)O[C@H]1COC2OCCC21 (stereo not given in full) | 501 | 160 | 61 | – | – | – | –
4 | Cc1cc(Cl)c(N)c(C)c1OCC(=O)N[C@@H](Cc1ccccc1)C[C@H](O)[C@H](Cc1ccccc1)NC(=O)O[C@H]1COC2OCCC21 (stereo not given in full) | 659 | 62 | 86 | – | – | – | –
5 | CNc1cc(C)c(OCC(=O)N[C@@H](Cc2ccccc2)C[C@H](O)[C@H](Cc2ccccc2)NC(=O)OC2COC3OCCC23)c(C)c1 (stereo not given in full) | 507 | 112 | 64 | – | – | – | –
6 | Cc1cc2nsnc2c(C)c1OCC(=O)N[C@@H](Cc1ccccc1)C[C@H](O)[C@H](Cc1ccccc1)NC(=O)O[C@H]1COC2OCCC21 (stereo not given in full) | 5650 | 621 | 71 | – | – | – | –
7 | Cc1cc(NS(C)(=O)=O)cc(C)c1OCC(=O)N[C@@H](Cc1ccccc1)[C@@H](O)C[C@H](Cc1ccccc1)NC(=O)O[C@H]1COC2OCCC21 (stereo not given in full) | – | – | – | 50 | – | – | –
8 | Cc1cc2[nH]c(O)nc2c(C)c1OCC(=O)N[C@@H](Cc1ccccc1)C[C@H](O)[C@H](Cc1ccccc1)NC(=O)O[C@H]1COC2OCCC21 (stereo not given in full) | 3110 | 972 | 85 | – | – | – | –
9 | Cc1cccc(C)c1NCC(=O)N[C@@H](Cc1ccccc1)C[C@H](O)[C@H](Cc1ccccc1)NC(=O)O[C@H]1COC2OCCC21 (stereo not given in full) | 2150 | 253 | 69 | – | – | – | –
10 | Cc1cc(O)cc(C)c1OCC(=O)N[C@@H](Cc1ccccc1)C[C@H](O)[C@H](Cc1ccccc1)NC(=O)O[C@H]1COC2OCCC21 (stereo not given in full) | 76 | 32 | 82 | – | – | – | –
11 | CNC(=O)c1cc(C)c(OCC(=O)N[C@@H](Cc2ccccc2)C[C@H](O)[C@H](Cc2ccccc2)NC(=O)O[C@H]2COC3OCCC32)c(C)c1 (stereo not given in full) | 533 | 220 | – | – | – | – | –
12 | Cc1cc2[nH]nnc2c(C)c1OCC(=O)N[C@@H](Cc1ccccc1)C[C@H](O)[C@H](Cc1ccccc1)NC(=O)O[C@H]1COC2OCCC21 (stereo not given in full) | 1880 | 188 | 67 | – | – | – | –
13 | Cc1cc(C)c(OCC(=O)N[C@@H](Cc2ccccc2)C[C@H](O)[C@H](Cc2ccccc2)NC(=O)O[C@H]2COC3OCCC32)c(C)c1N (stereo not given in full) | 117 | 23 | 74 | – | – | – | –
14 | Cc1ccc(O)c(C)c1OCC(=O)N[C@@H](Cc1ccccc1)C[C@H](O)[C@H](Cc1ccccc1)NC(=O)O[C@H]1COC2OCCC21 (stereo not given in full) | 98 | 7 | 92 | – | – | – | –
15 | Cc1ccnc(C)c1OCC(=O)N[C@@H](Cc1ccccc1)C[C@H](O)[C@H](Cc1ccccc1)NC(=O)O[C@H]1COC2OCCC21 (stereo not given in full) | 438 | 184 | 49 | – | – | – | –
16 | Cc1cc(C(=O)N(C)C)cc(C)c1OCC(=O)N[C@@H](Cc1ccccc1)C[C@H](O)[C@H](Cc1ccccc1)NC(=O)O[C@H]1COC2OCCC21 (stereo not given in full) | 11900 | 2310 | – | – | – | – | –
17 | Cc1cccc(CO)c1OCC(=O)N[C@@H](Cc1ccccc1)C[C@H](O)[C@H](Cc1ccccc1)NC(=O)O[C@H]1COC2OCCC21 (stereo not given in full) | 197 | 37 | 88 | – | – | – | –
18 | Cc1cc(N)cc(C)c1OCC(=O)N[C@@H](Cc1ccccc1)C[C@H](O)[C@H](Cc1ccccc1)NC(=O)O[C@@H]1COC2OCCC21 (stereo not given in full) | 129 | 47 | 60 | – | – | – | –
19 | Cc1cccc(C)c1OCC(=O)N[C@@H](Cc1ccccc1)[C@@H](O)C[C@H](Cc1ccccc1)NC(=O)OC1COC2OCCC12 (stereo not given in full) | 272 | 61 | 91 | – | – | – | –

Row | Structure (SMILES) | EC50 [1] [nM] | EC50 [2] [nM] | inhibition [3] [%] | inhibition [4] [%] | inhibition [5] [%] | inhibition [6] [%] | inhibition [7] [%]
20 | Cc1cc(N)cc(C)c1[S+]([O-])CC(=O)N[C@@H](Cc1ccccc1)C[C@H](O)[C@H](Cc1ccccc1)NC(=O)O[C@H]1COC2OCCC21 (stereo not given in full) | 98400 | 37500 | – | – | 50 | – | –
21 | Cc1cccc(C)c1OCC(=O)N[C@@H](Cc1ccccc1)C[C@H](O)[C@H](Cc1ccccc1)NC(=O)O[C@H]1COC2OCCC21 (stereo not given in full) | 300 | 41 | 87 | – | – | – | –
22 | CCOC(=O)c1cc(C)c(OCC(=O)N[C@@H](Cc2ccccc2)C[C@H](O)[C@H](Cc2ccccc2)NC(=O)O[C@H]2COC3OCCC32)c(C)c1 (stereo not given in full) | 3220 | 106 | 84 | – | – | – | –
23 | Cc1cc(OCCN2CCOCC2)cc(C)c1OCC(=O)N[C@@H](Cc1ccccc1)C[C@H](O)[C@H](Cc1ccccc1)NC(=O)O[C@H]1COC2OCCC21 (stereo not given in full) | 340 | 24 | 77 | – | – | – | –
24 | COc1cccc(C)c1OCC(=O)N[C@@H](Cc1ccccc1)C[C@H](O)[C@H](Cc1ccccc1)NC(=O)O[C@H]1COC2OCCC21 (stereo not given in full) | 1380 | 353 | 74 | – | – | – | –
25 | Cc1cccc(C)c1N(C)CC(=O)N[C@@H](Cc1ccccc1)C[C@H](O)[C@H](Cc1ccccc1)NC(=O)O[C@H]1COC2OCCC21 (stereo not given in full) | 30200 | 2910 | – | – | – | 50 | –
26 | Cc1cc(N)cc(C)c1S(=O)(=O)CC(=O)N[C@@H](Cc1ccccc1)C[C@H](O)[C@H](Cc1ccccc1)NC(=O)O[C@H]1COC2OCCC21 (stereo not given in full) | 61800 | 10300 | – | 50 | – | – | –
27 | Cc1cc(N2COCC2=O)cc(C)c1OCC(=O)N[C@@H](Cc1ccccc1)C[C@H](O)[C@H](Cc1ccccc1)NC(=O)O[C@H]1COC2OCCC21 (stereo not given in full) | 930 | 214 | 74 | – | – | – | –
28 | Cc1cc(C)c(OCC(=O)N[C@@H](Cc2ccccc2)C[C@H](O)[C@H](Cc2ccccc2)NC(=O)O[C@H]2COC3OCCC32)c(C)c1 (stereo not given in full) | 479 | 205 | 82 | – | – | – | –
29 | O=C(COc1ccccc1)N[C@@H](Cc1ccccc1)C[C@H](O)[C@H](Cc1ccccc1)NC(=O)O[C@H]1COC2OCCC21 (stereo not given in full) | – | – | 61 | – | – | – | –
30 | Cc1cc(N)cc(C)c1OCC(=O)N[C@@H](Cc1ccccc1)C[C@H](O)[C@H](Cc1ccccc1)NC(=O)OC1COC2OCCC12 (stereo not given in full) | 67 | 12 | 70 | – | – | – | –
31 | Cc1cc(N(C)C)cc(C)c1OCC(=O)N[C@@H](Cc1ccccc1)C[C@H](O)[C@H](Cc1ccccc1)NC(=O)O[C@H]1COC2OCCC21 (stereo not given in full) | 2070 | 160 | 43 | – | – | – | –
32 | Cc1cc(N)cc(C)c1OCC(=O)N[C@@H](Cc1ccccc1)C[C@H](O)[C@H](Cc1ccccc1)NC(=O)O[C@H]1COC2OCCC21 (stereo not given in full) | 31 | 9 | 78 | – | – | – | –
33 | Cc1cc(F)cc(C)c1OCC(=O)N[C@@H](Cc1ccccc1)C[C@H](O)[C@H](Cc1ccccc1)NC(=O)O[C@H]1COC2OCCC21 (stereo not given in full) | 866 | 268 | 69 | – | – | – | –
34 | Cc1ccccc1OCC(=O)N[C@@H](Cc1ccccc1)C[C@H](O)[C@H](Cc1ccccc1)NC(=O)O[C@H]1COC2OCCC21 (stereo not given in full) | – | – | 84 | – | – | – | –
35 | Cc1cc(N)c(N)c(C)c1OCC(=O)N[C@@H](Cc1ccccc1)C[C@H](O)[C@H](Cc1ccccc1)NC(=O)O[C@H]1COC2OCCC21 (stereo not given in full) | 1480 | 644 | 76 | – | – | – | –
36 | Cc1ncnc(C)c1OCC(=O)N[C@@H](Cc1ccccc1)C[C@H](O)[C@H](Cc1ccccc1)NC(=O)O[C@H]1COC2OCCC21 (stereo not given in full) | 1390 | 815 | 56 | – | – | – | –
37 | Cc1cc(N)cc(C)c1SCC(=O)N[C@@H](Cc1ccccc1)C[C@H](O)[C@H](Cc1ccccc1)NC(=O)O[C@H]1COC2OCCC21 (stereo not given in full) | 1040 | 5790 | – | – | – | – | 56
38 | Cc1cc([N+](=O)[O-])cc(C)c1OCC(=O)N[C@@H](Cc1ccccc1)C[C@H](O)[C@H](Cc1ccccc1)NC(=O)OC1COC2OCCC12 (stereo not given in full) | 8110 | 927 | 53 | – | – | – | –
